# Patent US20250339569A1, “CARBONIC ANHYDRASE IX LIGANDS” (priority 2021, published 2025)
# Read-outs that look alike come from different tables or passages of the source. Starred links: 1 amine or outer side, 2 acyl side, 3 side chain; linkers in the order of their positions; H or OH if unused. Positions of bridges follow the written chain, without caps; N, C: chain ends. Non-standard residues stand in square brackets, D forms with d. Residues, ends and D or L forms follow the SMILES beside them. *: point of attachment. Phe(3-NHCO(CH2)3SO2NH2) = N[C@@H](Cc1cccc(NC(=O)CCCS(N)(=O)=O)c1)C(=O)O; X3 = O=C(O)CN1CCN(CC(=O)O)CCN(CC(=O)NCCCOCCOCCOCCCN*)CCN(CC(=O)O)CC1; X21 = NS(=O)(=O)CCC(=O)Nc1cccc(C[C@H](N[*:1])C(=O)[*:2])c1; DOTA = O=C(O)CN1CCN(CC(=O)O)CCN(CC(=O)*)CCN(CC(=O)O)CC1; Phe(3,4-Cl2) = N[C@@H](Cc1ccc(Cl)c(Cl)c1)C(=O)O; Nip(3R) = O=C([C@@H]1CCCN([*:1])C1)[*:2]; Phe(4-I) = N[C@@H](Cc1ccc(I)cc1)C(=O)O; mXylylene = c1cc(C[*:1])cc(C[*:2])c1; X2 = O=C(CN1CCC(N[*:1])CC1)[*:2]; NMeD = CN[C@@H](CC(=O)O)C(=O)O; Suc = O=C(CCC(=O)[*:2])[*:1]; Dap = NC[C@H](N)C(=O)O
# What was measured:
# [1] = molecular target: T1, CAIX-expressing human HT-29 colorectal cancer cells (Homo sapiens, UniProt Q16790); test: FACS binding assay (IC50 determination, competition with tracer 3BP-2776 or 3BP-4149); conditions: FACS binding assay, HT-29 cells, 4° C., 1 hour, read-out: pIC50 category (activity) (converted)
# T1 construct: CAIX-expressing human HT-29 colorectal cancer cells; host or cells: HT-29 human colorectal cancer cells
# Outline: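 HT-29 cells in FACS buffer (PBS, 1% FCS) at 500.000 cells/ml were exposed to compounds competing with a labelled tracer, with biotinylated compounds detected by 1 μg/mL APC-streptavidin for 30 min on ice. APC/Cy5 median fluorescence was read by flow cytometry and IC50 derived by 4PL fit.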
# [2] = molecular target: T2, human carbonic anhydrase IX (hCAIX-Fc) (Homo sapiens, UniProt Q16790); test: Surface plasmon resonance assay with hCAIX-Fc; format: binding; conditions: 25° C.; for t1/2 category (activity): SPR dissociation half-life, hCAIX-Fc; for Kd: SPR, hCAIX-Fc captured, read-out: pKD category (activity) (converted)
# T2 construct: purchased SinoBliological (Sino Biological) 10107-H02H
# Description: Surface plasmon resonance (SPR) studies were performed using a Biacore™ T200 SPR system (GE Healthcare Life Sciences). Briefly, polarized light is directed towards a gold-labeled sensor surface, and minimum intensity reflected light is detected. The angle of reflected light changes as molecules bind and dissociate.
# Fc-fusion protein of human carbonic anhydrase IX (hCAIX-Fc, SinoBliological, Cat #10107-H02H) was captured on a Fc-capture chip (Biacore™ CM5 sensor chip coated with ˜300 RU of an Fc-binding peptide). Recombinant carbonic anydrase was diluted in Running Buffer (PBST, 0.1% DMSO) to a final concentration 100 or 200 nM and than flushed over the Fc-capture chip to immobilized ˜1000 RUs.
# Stock solutions of test compounds were prepared by dissolving each compound in DMSO. DMSO stock solution were diluted 1:1000 in Running Buffer without DMSO. Further sequencial dilutions were made with Running Buffer containing 0.1% DMSO. SPR binding analyses were performed in Single Cycle Kinetic (SCK) mode at 25° C. Flow cell coated with the Fc-binding peptide only served as reference flowcell. After each SCK run, carbonic andydrase IX was removed with 10 mM glycine buffer, pH 1.5.
# In between every three SCK measurements, a blank run with Running Buffer instead of test compound was included to correct for baseline drifts (double blanking methods).
# Table 11 describes the protocol steps for Fc-fusion target capturing and assessment of the binding kinetics.
# For each test compound, SPR raw data in the form of resonance units (RU) were plotted as sensorgrams using the Biacore™ T200 control software. The signal from the blank sensorgram was subtracted from that of the test compound sensorgram (blank corrected). The blank corrected sensorgram was corrected for baseline drift by subtracting the sensorgram of a SCK run without the test compound (running buffer only). The association rate (kon), dissociation rate (koff), dissociation constant (KD), and t1/2 were calculated from Blank-normalized SPR data using the 1:1 Langmuir binding model from the Biacore™ T200 evaluation software. Raw data and fit results were imported as text files in IDBS. The pKD value (negative decadic logarithm of dissociation constant) was calculated in the IDBS excel template.
# [3] = competition with tracer 3BP-2776 (10 nM, biotin-labeled)
Compound,"IC50 ([1]; competition with tracer 3BP-4149 (3 nM, Cy5-labeled)) [nM]",t1/2 category (activity) [2],Kd [2] [nM],"IC50 [1, 3] [nM]"
CC(C)C[C@@H]1NC(=O)[C@H](Cc2c[nH]c3ccccc23)NC(=O)[C@H](CC(=O)O)N(C)C(=O)[C@H]2CCCN2C(=O)[C@H](CCC(=O)O)NC(=O)[C@@H](NC(=O)[C@H](Cc2ccc(O)cc2)NC(=O)[C@@H](NC(=O)CN2CCC(NC(=O)CN3CCN(CC(=O)O)CCN(CC(=O)O)CCN(CC(=O)O)CC3)CC2)C(C)C)CSCc2cccc(c2)CSC[C@@H](C(N)=O)NC(=O)[C@H](CO)NC(=O)[C@H](Cc2c[nH]c3ccccc23)NC(=O)[C@H]([C@@H](C)O)NC1=O [3BP-4107] ({DOTA}-[X2]VYCE[dP][NMeD]WLTWSC-NH2; linker 4-13 via mXylylene),,A (t1/2>15.0 minutes),< 10,< 10
CC(C)C[C@@H]1NC(=O)[C@H](Cc2ccc(I)cc2)NC(=O)[C@H](CC(=O)O)NC(=O)[C@H]2CCCN2C(=O)[C@H](CCC(=O)O)NC(=O)[C@@H](NC(=O)[C@H](Cc2ccc(O)cc2)NC(=O)[C@@H](NC(=O)CN2CCC(NC(=O)CN3CCN(CC(=O)O)CCN(CC(=O)O)CCN(CC(=O)O)CC3)CC2)C(C)C)CSCc2cccc(c2)CSC[C@@H](C(N)=O)NC(=O)[C@H](CO)NC(=O)[C@H](Cc2c[nH]c3ccccc23)NC(=O)[C@H]([C@@H](C)O)NC1=O [3BP-4134] ({DOTA}-[X2]VYCE[dP]D[Phe(4-I)]LTWSC-NH2; linker 4-13 via mXylylene),,C (t1/2 between 2.1 and 5.0 minutes),< 10,< 10
CC(C)C[C@@H]1NC(=O)[C@H](Cc2c[nH]c3ccccc23)NC(=O)[C@H](CC(=O)O)NC(=O)CNC(=O)[C@H](CCC(=O)O)NC(=O)[C@@H](NC(=O)[C@H](Cc2ccc(O)cc2)NC(=O)[C@@H](NC(=O)CCC(=O)NCCCOCCOCCOCCCNC(=O)CN2CCN(CC(=O)O)CCN(CC(=O)O)CCN(CC(=O)O)CC2)C(C)C)CSCc2cccc(c2)CSC[C@@H](C(N)=O)NC(=O)[C@H](CCC(N)=O)NC(=O)[C@H](Cc2c[nH]c3ccccc23)NC(=O)[C@H]([C@@H](C)O)NC1=O [3BP-3328] ({X3-Suc}-VYCEGDWLTWQC-NH2; linker 3-12 via mXylylene),,,< 10,

# Further lines, results first:
"IC50 ([1]; competition with tracer 3BP-4149 (3 nM, Cy5-labeled)) [nM]",t1/2 category (activity) [2],Kd [2] [nM],"IC50 [1, 3] [nM]",Compound
< 10,A (t1/2>15.0 minutes),< 10,,CC(C)C[C@@H]1NC(=O)[C@H](Cc2cccc(NC(=O)CCS(N)(=O)=O)c2)NC(=O)[C@H](CC(=O)O)NC(=O)[C@H]2CCCN2C(=O)[C@H](CCC(=O)O)NC(=O)[C@@H](NC(=O)[C@H](Cc2ccc(O)cc2)NC(=O)[C@@H](NC(=O)CN2CCC(NC(=O)CN3CCN(CC(=O)O)CCN(CC(=O)O)CCN(CC(=O)O)CC3)CC2)C(C)C)CSCc2cccc(c2)CSC[C@@H](C(N)=O)NC(=O)[C@H](CO)NC(=O)[C@H](Cc2c[nH]c3ccccc23)NC(=O)[C@H]([C@@H](C)O)NC1=O [3BP-4407] ({DOTA}-[X2]VYCE[dP]D[X21]LTWSC-NH2; linker 4-13 via mXylylene)
,A (t1/2>15.0 minutes),< 10,< 10,CC(C)C[C@@H]1NC(=O)[C@H](Cc2cccc(NC(=O)CCCS(N)(=O)=O)c2)NC(=O)[C@H](CC(=O)O)NC(=O)[C@H]2CCCN2C(=O)[C@H](CCC(=O)O)NC(=O)[C@@H](NC(=O)[C@H](Cc2ccc(O)cc2)NC(=O)[C@@H]2CCCN(C(=O)CN3CCN(CC(=O)O)CCN(CC(=O)O)CCN(CC(=O)O)CC3)C2)CSCc2cccc(c2)CSC[C@@H](C(N)=O)NC(=O)[C@H](CO)NC(=O)[C@H](Cc2c[nH]c3ccccc23)NC(=O)[C@H]([C@@H](C)O)NC1=O [3BP-4455] ({DOTA}-[Nip(3R)]YCE[dP]D[Phe(3-NHCO(CH2)3SO2NH2)]LTWSC-NH2; linker 3-12 via mXylylene)
,B (t1/2 between 5.1 and 15.0 minutes),< 10,,"CC(C)C[C@@H]1NC(=O)[C@H](Cc2ccc(Cl)c(Cl)c2)NC(=O)[C@H](CC(=O)O)NC(=O)[C@H]2CCCN2C(=O)[C@H](CCC(=O)O)NC(=O)[C@@H]2CSCc3cccc(c3)CSC[C@@H](C(N)=O)NC(=O)[C@H](CNC(=O)C[C@H](NC(=O)[C@@H](NC(=O)CN3CCC(NC(=O)CN4CCN(CC(=O)O)CCN(CC(=O)O)CCN(CC(=O)O)CC4)CC3)C(C)C)C(=O)N2)NC(=O)[C@H](Cc2c[nH]c3ccccc23)NC(=O)[C@H]([C@@H](C)O)NC1=O [3BP-4439] ({DOTA}-[X2]VDCE[dP]D[Phe(3,4-Cl2)]LTW[Dap]C-NH2; lactam 3-12; linker 4-13 via mXylylene)"
